Where two headings read alike, the source gives them in different places.
How the values were obtained:
[1] = test system: human ovarian cancer cell line A2780; assay: Anticancer activity, CCK8 cell viability; type: cell-based; conditions: 72 h, A2780 cells, three days, FIG. 1
Experimental: (§1) The anticancer activity of the MLK3 and HPK1 kinase inhibitor compounds was evaluated using the human ovarian cancer cell line A2780 and the cisplatin-resistant cell line A2780/cis. A2780 and A2780/cis cells were cultured at a density of 4000 cells per well in 96-well plates and stabilized for one day. The compounds 1 to 3 synthesized in Example 1 were serially diluted starting from a concentration of 10 μM and applied to the cells. The treated cells were incubated for three days, and cell viability was measured using CCK8 reagent, with the concentration at which 50% of the cancer cells died expressed as the GI50.

[2] = test system: cisplatin-resistant cell line A2780/cis; assay: Anticancer activity, CCK8 cell viability; type: cell-based; conditions: Homo sapiens, A2780cis, 72 h, A2780/cis cells, three days, FIG. 1
Experimental: as §1

[3] = test system: doxorubicin-resistant blood cancer K562/ADM; assay: Anticancer activity in other cancer cell lines; type: cell-based; conditions: Homo sapiens
Experimental: as §1
(§2) Additionally, the anticancer activity of the compounds was also observed in other cancer cell lines (blood cancer, breast cancer, ovarian cancer, lung cancer, and brain cancer), as well as in drug-resistant cancer cell lines (doxorubicin-resistant blood cancer K562/ADM; and paclitaxel-resistant breast cancer MDA-MB-231/PTX).

A549 = assay: Anticancer activity in other cancer cell lines; type: cell-based; conditions: Homo sapiens
Experimental: as §1, §2

SH-SY5Y = assay: Anticancer activity in other cancer cell lines; type: cell-based; conditions: Homo sapiens
Experimental: as §1, §2

U937 = assay: Anticancer activity in other cancer cell lines; type: cell-based; conditions: Homo sapiens, U-937
Experimental: as §1, §2

MDA-MB-453 = assay: Anticancer activity in other cancer cell lines; type: cell-based; conditions: Homo sapiens
Experimental: as §1, §2

[4] = test system: paclitaxel-resistant breast cancer MDA-MB-231/PTX; assay: Anticancer activity in other cancer cell lines; type: cell-based; conditions: Homo sapiens
Experimental: as §1, §2

SKOV3 = assay: Anticancer activity in other cancer cell lines; type: cell-based; conditions: Homo sapiens, SK-OV-3
Experimental: as §1, §2

K562 = assay: Anticancer activity in other cancer cell lines; type: cell-based; conditions: Homo sapiens
Experimental: as §1, §2

MDA-MB-231 = assay: Anticancer activity in other cancer cell lines; type: cell-based; conditions: Homo sapiens
Experimental: as §1, §2

HPK1 (h) = HPK1 (h) (Homo sapiens (Human), UniProt Q92918); assay: Inhibition against kinase activity of HPK1 (33P-ATP filter assay); type: biochemical
Sequence of HPK1 (h) (Q92918 whole entry): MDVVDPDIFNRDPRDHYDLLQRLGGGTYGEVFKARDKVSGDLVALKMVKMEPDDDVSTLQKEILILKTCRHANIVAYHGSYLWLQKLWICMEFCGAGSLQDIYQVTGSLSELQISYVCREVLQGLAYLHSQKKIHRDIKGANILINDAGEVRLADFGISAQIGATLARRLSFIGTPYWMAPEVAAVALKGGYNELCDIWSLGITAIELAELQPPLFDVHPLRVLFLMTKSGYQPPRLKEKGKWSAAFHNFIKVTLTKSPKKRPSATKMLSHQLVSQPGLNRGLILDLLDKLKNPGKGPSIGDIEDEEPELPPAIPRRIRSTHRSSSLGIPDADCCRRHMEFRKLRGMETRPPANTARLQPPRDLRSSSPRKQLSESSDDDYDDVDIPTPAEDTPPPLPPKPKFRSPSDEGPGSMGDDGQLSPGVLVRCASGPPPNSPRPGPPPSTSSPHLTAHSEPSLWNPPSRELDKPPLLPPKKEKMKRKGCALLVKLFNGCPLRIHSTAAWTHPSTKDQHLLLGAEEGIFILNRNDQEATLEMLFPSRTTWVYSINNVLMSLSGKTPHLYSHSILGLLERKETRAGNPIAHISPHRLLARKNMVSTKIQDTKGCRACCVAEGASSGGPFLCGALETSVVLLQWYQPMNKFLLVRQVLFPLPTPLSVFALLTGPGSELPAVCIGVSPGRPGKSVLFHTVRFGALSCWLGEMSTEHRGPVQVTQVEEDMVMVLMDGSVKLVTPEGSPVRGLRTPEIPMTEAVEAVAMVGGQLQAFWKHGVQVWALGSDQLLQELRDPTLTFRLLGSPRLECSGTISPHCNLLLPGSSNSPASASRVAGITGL
Experimental: Inhibition against kinase activity of HPK1 was measured as follows. Recombinant human HPK1 protein was mixed with the compounds in a reaction solution (8 mM MOPS, pH 7.0, 0.2 mM EDTA, 0.33 mg/mL myelin basic protein, 10 mM magnesium acetate, and 15 μM [gamma-33P-ATP]). The mixture was incubated at room temperature for 40 minutes. The reaction was terminated by adding phosphoric acid at a final concentration of 0.5%. A 10 μL aliquot of the reaction solution was spotted onto a P30 filter, washed four times in 0.425% phosphoric acid solution for 4 minutes each, and washed once with methanol. The filters were dried, and HPK1 activity was measured via scintillation counting. The HPK1 activity observed in the control group free of the compounds was set as 100%, and the inhibition by the compounds was expressed relative to this control value. To calculate the IC50 value, the compounds were diluted in 9 concentrations, starting from a maximum of 1 μM in a threefold serial dilution. The IC50 was defined as the concentration at which 50% inhibition was observed.

Human PBMC = assay: IL-2 measurement for T cell activation enhancement; type: cell-based; conditions: CD3/CD28 Dynabeads, 6 days, FIG. 2
Experimental: Human PBMC was seeded at a density of 2×10^5 cells per well in a 96-well plate. The cells were pretreated for one hour with serial dilutions of the compounds 1 to 3 synthesized in Example 1 starting from 3 μM. Afterward, CD3/CD28 Dynabeads were added to the cells at a 1:1 ratio and incubated for 6 days. After incubation, the cells and media were analyzed using the Sartorius human T cell activation cell and cytokine profiling kit with the iQue system. IL-2, a biomarker used to assess T cell activation, was measured. The results were calculated by setting the positive control group (treated with Dynabeads alone) as 100%.

MLK3 (h) = MLK3 (h) (Homo sapiens, UniProt Q16584); assay: Inhibition against kinase activity of MLK3 (33P-ATP filter assay); type: biochemical
Sequence of MLK3 (h) (Q16584 whole entry, looked up): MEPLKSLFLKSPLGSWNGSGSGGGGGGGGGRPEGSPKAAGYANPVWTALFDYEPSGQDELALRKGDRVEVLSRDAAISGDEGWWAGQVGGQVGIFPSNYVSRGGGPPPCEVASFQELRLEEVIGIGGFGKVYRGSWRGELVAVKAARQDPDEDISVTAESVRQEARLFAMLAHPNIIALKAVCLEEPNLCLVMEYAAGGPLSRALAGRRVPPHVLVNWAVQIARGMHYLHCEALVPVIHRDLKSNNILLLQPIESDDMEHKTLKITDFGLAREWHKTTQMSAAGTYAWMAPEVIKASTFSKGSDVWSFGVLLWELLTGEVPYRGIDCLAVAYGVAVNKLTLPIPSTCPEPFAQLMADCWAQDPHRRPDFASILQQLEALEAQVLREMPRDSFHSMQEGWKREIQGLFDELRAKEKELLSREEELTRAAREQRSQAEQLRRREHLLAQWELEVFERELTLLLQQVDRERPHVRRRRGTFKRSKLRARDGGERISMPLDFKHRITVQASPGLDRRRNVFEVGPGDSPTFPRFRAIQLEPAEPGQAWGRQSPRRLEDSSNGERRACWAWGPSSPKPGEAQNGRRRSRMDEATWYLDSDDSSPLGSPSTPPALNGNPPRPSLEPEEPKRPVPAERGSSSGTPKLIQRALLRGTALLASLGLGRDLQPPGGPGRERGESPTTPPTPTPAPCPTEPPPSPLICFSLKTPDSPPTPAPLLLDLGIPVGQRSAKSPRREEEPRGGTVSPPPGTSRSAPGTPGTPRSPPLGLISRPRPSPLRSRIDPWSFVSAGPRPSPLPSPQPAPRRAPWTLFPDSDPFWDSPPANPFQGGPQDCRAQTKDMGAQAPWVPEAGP
Experimental: The kinase inhibition activity against MLK3 was measured as follows. Recombinant human […] protein was mixed with the compounds in a reaction solution (8 mM MOPS, pH 7.0, 0.2 mM EDTA, 0.33 mg/mL myelin basic protein, 5 mM DTT, 10 mM magnesium acetate, and 45 μM [gamma-33P-ATP]). The mixture was incubated at room temperature for 40 minutes. The reaction was terminated by adding phosphoric acid at a final concentration of 0.5%. A 10 μL aliquot of the reaction solution was then spotted onto a P30 filter, which was washed four times in 0.425% phosphoric acid solution for 4 minutes each and then washed once in methanol. The filters were dried, and MLK3 activity was measured via scintillation counting. The MLK3 activity observed in the control group free of the compounds was set as 100%, and the inhibition by the compounds was expressed relative to this control value. To calculate the IC50 value, the compounds were diluted in 9 concentrations, starting from a maximum of 1 μM in a threefold serial dilution. The IC50 was defined as the concentration at which 50% inhibition was observed.

[5] = HPK1 (h), 15 μM ATP, read-out: IC50
[6] = approximate value, read-out: IC50 value for HPK1 inhibition
[7] = MLK3 (h), 45 μM ATP, read-out: IC50
[8] = approximate value, read-out: IC50 value for MLK3 inhibition

## CC1(C)OC(=O)c2ccc(Nc3nc(Nc4ccc5c(c4)CCNC5)ncc3Cl)cc21 [Compound 1, 5-((5-chloro-2-((1,2,3,4-tetrahydroisoquinolin-6-yl)amino)pyrimidin-4-yl)amino)-3,3-dimethylisobenzofuran-1(3H)-one]
[1]
  GI50: ~200 nM
[2]
  GI50: ~400 nM
[3]
  GI50: 3740 nM
A549
  GI50: 1610 nM
SH-SY5Y
  GI50: 390 nM
U937
  GI50: 290 nM
MDA-MB-453
  GI50: 1020 nM
[4]
  GI50: 990 nM
SKOV3
  GI50: 1700 nM
K562
  GI50: 430 nM
MDA-MB-231
  GI50: 1250 nM
HPK1 (h); [5]
  IC50: 1 to 100 nM
HPK1 (h); [6]
  IC50: ~30 nM
Human PBMC
  IL-2 levels (T cell activation): increased IL-2 levels
MLK3 (h); [7]
  IC50: 100 to 500 nM
MLK3 (h); [8]
  IC50: ~140 nM

## CC1(C)OC(=O)c2cc(Nc3nc(Nc4ccc5c(c4)CCNC5)ncc3Cl)ccc21 [Compound 2, 6-((5-chloro-2-((1,2,3,4-tetrahydroisoquinolin-6-yl)amino)pyrimidin-4-yl)amino)-3,3-dimethylisobenzofuran-1(3H)-one]
[1]
  GI50: ~210 nM
[2]
  GI50: ~310 nM
[3]
  GI50: 2280 nM
A549
  GI50: 1150 nM
SH-SY5Y
  GI50: 280 nM
U937
  GI50: 440 nM
MDA-MB-453
  GI50: 2900 nM
[4]
  GI50: 770 nM
SKOV3
  GI50: 1500 nM
K562
  GI50: 1070 nM
MDA-MB-231
  GI50: 1030 nM
HPK1 (h); [5]
  IC50: 1 to 100 nM
HPK1 (h); [6]
  IC50: ~50 nM
Human PBMC
  IL-2 levels (T cell activation): increased IL-2 levels
MLK3 (h); [7]
  IC50: 100 to 500 nM
MLK3 (h); [8]
  IC50: ~200 nM

## CC1(C)OC(=O)c2ccc(Nc3ncc(Cl)c(Nc4ccc5c(c4)C(C)(C)OC5=O)n3)cc21 [Compound 3, 5,5′-((5-Chloropyrimidine-2,4-diyl)bis(azanediyl))bis(3,3-dimethylisobenzofuran-1(3H)-one)]
[3]
  GI50: > 10000 nM
A549
  GI50: > 10000 nM
SH-SY5Y
  GI50: 550 nM
U937
  GI50: > 10000 nM
MDA-MB-453
  GI50: 1070 nM
[4]
  GI50: 1110 nM
SKOV3
  GI50: > 10000 nM
K562
  GI50: > 10000 nM
MDA-MB-231
  GI50: 1350 nM
HPK1 (h); [5]
  IC50: 500 to 1000 nM
HPK1 (h); [6]
  IC50: ~900 nM
MLK3 (h); [7]
  IC50: > 1000 nM
